Assay results: patent US11384078B2, “5,6-fused-bicyclic compounds and compositions for the treatment of parasitic diseases” (NOVARTIS AG, priority 2017, dated 2022)
pEC50: −log10 of the molar value. Read-outs that look alike come from different tables or passages of the source.

Tests used:
Format in all cases: cell-based
[1] = tested on: Trypanosoma cruzi amastigotes cultured in 3T3 fibroblast cells; test: Assay for growth inhibition of kinetoplastid parasite Trypanosoma cruzi (beta-galactosidase Tulahuen strain, CPRG readout); details: T. cruzi amastigotes in 3T3 fibroblast cells, read-out: Buckner infectious T. cruzi EC50
Method in brief: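 3T3 fibroblasts (1,000 cells/well) plated overnight, treated with compound in DMSO, then infected with 10,000 Lac-Z-expressing Tulahuen trypomastigotes. After 6 days, 0.6 mM CPRG with 0.6% NP-40 added for 2 h at room temperature; absorbance gives relative intracellular amastigote numbers. Benznidazole and nifurtimox serve as positive controls.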

[2] = tested on: L. donovani HU3 strain in mouse peritoneal macrophages; test: Assay for inhibition of parasitemia of Leishmania donovani in mouse macrophages (SYBR Green nuclei count, high-content imaging); details: L. donovani in mouse peritoneal macrophages, read-out: L. donovani in Mouse Macrophages EC50
Method in brief: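 Peritoneal macrophages from uninfected BALB/c mice were infected for 24 h with spleen-derived L. donovani HU3 (4×10^5 parasites per 2×10^4 macrophages), then cultured with compound for 5 days at 37° C, 5% CO2. After fixation and permeabilization, parasite nuclei were stained with SYBR Green and counted by high-content imaging.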

[3] = tested on: Leishmania donovani axenic amastigote; test: In vitro assay for growth inhibition of Leishmania donovani axenic amastigote (Cell TiterGlo luminescence); details: L. donovani axenic amastigotes in vitro, read-out: L. donovani amastigotes EC50
Method in brief: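 Axenic L. donovani amastigotes (9600/well) grown at 37 °C, 5% CO2 in supplemented RPMI 1640, pH 5.5, with compound added from DMSO. After two days, viability read by CellTiter-Glo luminescence against DMSO and control-compound wells.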

[4] = tested on: Trypanosoma brucei brucei (Lister 427) strain; test: Assay for growth inhibition against Trypanosoma brucei brucei (Cell TiterGlo ATP luminescence); details: T. brucei brucei (Lister 427), read-out: T. Brucei (HAT) EC50
Method in brief: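 T. b. brucei Lister 427 grown in HMI-9 with 10% FBS and 10% serum plus, seeded at 10,000 parasites/mL with 10-point threefold compound dilutions in duplicate, 37 °C for 2 days. Viability read as ATP luminescence 30 min after Cell TiterGlo; IC50 versus untreated controls.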

[5] = Leishmania donovani, Peritoneal macrophage

| SMILES | pEC50 ([1]; Trypanosoma cruzi, Fibroblast) | pEC50 [2, 5] | pEC50 ([3]; Leishmania donovani) | pEC50 ([4]; Trypanosoma brucei) | pEC50 [1] | pEC50 [2] | pEC50 [3] | pEC50 [4] |
| --- | --- | --- | --- | --- | --- | --- | --- | --- |
| O=C(Nc1ccc(F)c(-n2cc3cc(N4C5COCC4C5)cnc3n2)c1)N1CC(F)C1 [Compound 263, 3-fluoro-N-[4-fluoro-3-(5-{3-oxa-6-azabicyclo[3.1.1]heptan-6-yl}-2H-pyrazolo[3,4-b]pyridin-2-yl)phenyl]azetidine-1-carboxamide] | 7.35 | 7.17 | 7.92 | 8.00 |  |  |  |  |
| CC(C)c1cnc2nn(-c3cc(NC(=O)C4CCC(C(F)(F)F)C4)ccc3F)cc2c1 (centres unmarked) [Compound 71, N-{4-fluoro-3-[5-(propan-2-yl)-2H-pyrazolo[3,4-b]pyridin-2-yl]phenyl}-3-(trifluoromethyl)cyclopentane-1-carboxamide] | 5.85 | 5.55 | 5.32 | 5.52 |  |  |  |  |
| O=C(Nc1ccc(Cl)c(-n2cc3cc(N4CC5(CC5)C4)cnc3n2)c1)N1CCC1 [Compound 286, N-[3-(5-{5-azaspiro[2.3]hexan-5-yl}-2H-pyrazolo[3,4-b]pyridin-2-yl)-4-chlorophenyl]azetidine-1-carboxamide] | 7.85 | 7.33 | 7.60 | 7.52 |  |  |  |  |
| O=C(Nc1ccnc(-n2cc3cc(N4CC5(CC5)C4)cnc3n2)c1)N1CCC1 [Compound 282, N-[2-(5-{5-azaspiro[2.3]hexan-5-yl}-2H-pyrazolo[3,4-b]pyridin-2-yl)pyridin-4-yl}azetidine-1-carboxamide] | 7.40 | 7.15 | 7.47 | 7.57 |  |  |  |  |
| Cc1nc(C(=O)Nc2ccc(F)c(-n3cc4cc(C(C)C)cnc4n3)c2)c(C)o1 [Compound 74, N-{4-fluoro-3-[5-(propan-2-yl)-2H-pyrazolo[3,4-b]pyridin-2-yl]phenyl}-2,5-dimethyl-1,3-oxazole-4-carboxamide] | 7.24 | 6.09 | 6.12 | 6.96 |  |  |  |  |
| N#CC1CN(c2cnc3nn(-c4cc(NC(=O)N5CC(F)C5)ccc4F)cc3c2)C1 [Compound 266, N-{3-[5-(3-cyanoazetidin-1-yl)-2H-pyrazolo[3,4-b]pyridin-2-yl]-4-fluorophenyl}-3-fluoroazetidine-1-carboxamide] | 7.19 | 7.54 | 8.10 | 8.30 |  |  |  |  |
| O=C(Nc1ccc(F)c(-n2cc3cc(CC(F)(F)F)cnc3n2)c1)N1CCC1 [Compound 164, N-{4-fluoro-3-[5-(2,2,2-trifluoroethyl)-2H-pyrazolo[3,4-b]pyridin-2-yl]phenyl}azetidine-1-carboxamide] | 8.77 | 8.00 | 8.22 | > 7.64 |  |  |  |  |
| O=C(Nc1ccc(F)c(-n2cc3cc(-c4ccccn4)cnc3n2)c1)[C@H]1C[C@@H]1F (single isomer, unassigned) [Compound 273, (1 S,2R)-2-fluoro-N-(4-fluoro-3-(5-(pyridin-2-yl)-2H-pyrazolo[3,4-b]pyridin-2-yl)phenyl)cyclopropane-1-carboxamide or (1R,2S)-2-fluoro-N-(4-fluoro-3-(5-(pyridin-2-yl)-2H-pyrazolo[3,4-b]pyridin-2-yl)phenyl)cyclopropane-1-carboxamide] |  |  |  |  | 7.77 | 8.22 | 7.57 | 7.35 |
| O=C(Nc1cccc(-n2cc3cc(N4CC(F)(F)C4)cnc3n2)c1)N1CCC1 [Compound 343, N-{3-[5-(3,3-difluoroazetidin-1-yl)-2H-pyrazolo[3,4-b]pyridin-2-yl]phenyl}azetidine-1-carboxamide] | 7.85 | 7.49 | 8.00 | 8.05 |  |  |  |  |
| Cn1cnc(-c2cnc3nn(-c4cc(NC(=O)N5CC(F)C5)ccc4F)cc3c2)c1 [Compound 301, 3-fluoro-N-{4-fluoro-3-[5-(1-methyl-1H-imidazol-4-yl)-2H-pyrazolo[3,4-b]pyridin-2-yl]phenyl}azetidine-1-carboxamide] | 6.33 | 7.01 | 7.14 | 8.10 |  |  |  |  |
| O=C(Nc1ccc(F)c(-n2cc3cc(N4CCCC4)cnc3n2)c1)N1CC[C@@H](F)C1 [Compound 134, (3R)-3-fluoro-N-{4-fluoro-3-[5-(pyrrolidin-1-yl)-2H-pyrazolo[3,4-b]pyridin-2-yl]phenyl}pyrrolidine-1-carboxamide] | 7.70 | 8.27 | 7.64 | > 7.64 |  |  |  |  |
| CCCC(C)c1cnc2nn(-c3cc(NC(=O)N4CC(F)C4)ccc3F)cc2c1 (centres unmarked) [Compound 23, 3-fluoro-N-{4-fluoro-3-[5-(pentan-2-yl)-2H-pyrazolo[3,4-b]pyridin-2-yl]phenyl}azetidine-1-carboxamide] | 7.11 | 6.96 | 6.85 | > 7.64 |  |  |  |  |
| O=C(Nc1ccc(F)c(-n2cc3cc(-c4ncccc4F)cnc3n2)c1)N1CCC1 [Compound 313, N-{4-fluoro-3-[5-(3-fluoropyridin-2-yl)-2H-pyrazolo[3,4-b]pyridin-2-yl]phenyl}azetidine-1-carboxamide] | 9.00 | 8.70 | 9.00 | 8.30 |  |  |  |  |
| CCC(C)c1cnc2nn(-c3cc(NC(=O)c4oc(C)nc4C)ccc3F)cc2c1 (centres unmarked) [Compound 105, N-{3-[5-(butan-2-yl)-2H-pyrazolo[3,4-b]pyridin-2-yl]-4-fluorophenyl}-2,4-dimethyl-1,3-oxazole-5-carboxamide] | 6.37 | 6.05 | 6.14 | 6.42 |  |  |  |  |
| CCC(C)(C)c1cnc2nn(-c3cc(NC(=O)c4oc(C)nc4C)ccc3F)cc2c1 [Compound 104, N-{4-fluoro-3-[5-(2-methylbutan-2-yl)-2H-pyrazolo[3,4-b]pyridin-2-yl]phenyl}-2,4-dimethyl-1,3-oxazole-5-carboxamide] | 5.92 | 5.68 | 5.51 | 5.38 |  |  |  |  |
| O=C(Nc1ccc(Cl)c(-n2cc3cc(-c4ccccn4)cnc3n2)c1)N1CC(F)C1 [Compound 283, N-{4-chloro-3-[5-(pyridin-2-yl)-2H-pyrazolo[3,4-b]pyridin-2-yl]phenyl}-3-fluoroazetidine-1-carboxamide] | 8.30 | 7.72 | 8.15 | 8.10 |  |  |  |  |
| O=C(Nc1ccc(F)c(-n2cc3cc(C4CCOCC4)cnc3n2)c1)N1CC[C@@H](F)C1 [Compound 150, (R)-3-fluoro-N-(4-fluoro-3-(5-(tetrahydro-2H-pyran-4-yl)-2H-pyrazolo[3,4-b]pyridin-2-yl)phenyl)pyrrolidine-1-carboxamide] | 7.68 | 7.60 | 7.85 | > 7.64 |  |  |  |  |
| O=C1CCC2(CN(c3cnc4nn(-c5cc(NC(=O)N6CC(F)C6)ccc5F)cc4c3)C2)N1 [Compound 245, 3-fluoro-N-[4-fluoro-3-(5-{6-oxo-2,5-diazaspiro[3.4]octan-2-yl}-2H-pyrazolo[3,4-b]pyridin-2-yl)phenyl}azetidine-1-carboxamide] | 6.02 | 5.83 | 6.51 | 7.21 |  |  |  |  |
| CC(C)c1cnc2nn(-c3cc(NC(=O)CC(F)(F)F)ccc3F)cc2c1 [Compound 212, 3,3,3-trifluoro-N-{4-fluoro-3-[5-(propan-2-yl)-2H-pyrazolo[3,4-b]pyridin-2-yl]phenyl}propanamide] | 5.76 | 5.05 | 4.95 | 5.69 |  |  |  |  |
| O=C(Nc1ccc(F)c(-n2cc3cc(N4CCNCC4)cnc3n2)c1)N1CC(F)C1 [Compound 270, 3-fluoro-N-{4-fluoro-3-[5-(piperazin-1-yl)-2H-pyrazolo[3,4-b]pyridin-2-yl]phenyl}azetidine-1-carboxamide] | 5.77 | 5.66 | 6.63 | 7.10 |  |  |  |  |
| CC(C)CCc1cnc2nn(-c3cc(NC(=O)N4CC(F)C4)ccc3F)cc2c1 [Compound 27, 3-fluoro-N-{4-fluoro-3-[5-(3-methylbutyl)-2H-pyrazolo[3,4-b]pyridin-2-yl]phenyl}azetidine-1-carboxamide] | 7.42 | 7.82 | 7.48 | > 7.64 |  |  |  |  |
| CC(C)CNc1cnc2nn(-c3cc(NC(=O)N4CC(F)C4)ccc3F)cc2c1 [Compound 198, 3-fluoro-N-(4-fluoro-3-{5-[(2-methylpropyl)amino]-2H-pyrazolo[3,4-b]pyridin-2-yl}phenyl)azetidine-1-carboxamide] | 7.64 | 7.31 | 6.26 | 8.30 |  |  |  |  |
| Cc1nc(C)c(C(=O)Nc2ccc(F)c(-n3cc4cc(C5CCC5)cnc4n3)c2)o1 [Compound 101, N-(3-{5-cyclobutyl-2H-pyrazolo[3,4-b]pyridin-2-yl}-4-fluorophenyl)-2,4-dimethyl-1,3-oxazole-5-carboxamide] | 6.89 | 6.51 | 6.52 | 6.82 |  |  |  |  |
